Assays:
Format in all cases: functional
[1] = Growth inhibition of human SKOV3 cells at 10 uM after 48 hrs by SRB assay relative to control; conditions: SK-OV-3, 48 h, read-out: GI
NCI-H522 = experiment: Growth inhibition of human NCI-H522 cells after 48 hrs by SRB assay; conditions: NCI-H522, 48 h
SK-MEL-28 = experiment: Growth inhibition of human SK-MEL-28 cells at 10 uM after 48 hrs by SRB assay relative to control; conditions: SK-MEL-28, 48 h, read-out: GI
[2] = Growth inhibition of human RXF393 cells after 48 hrs by SRB assay; conditions: RXF 393, 48 h
MDA-MB-435 [3] = experiment: Growth inhibition of human MDA-MB-435 cells at 10 uM after 48 hrs by SRB assay relative to control; conditions: MDA-MB-435, 48 h, read-out: GI
[4] = Growth inhibition of human SF268 cells after 48 hrs by SRB assay; conditions: SF-268, 48 h
[5] = Growth inhibition of human SW620 cells after 48 hrs by SRB assay; conditions: SW-620, 48 h
[6] = Growth inhibition of human UACC257 cells at 10 uM after 48 hrs by SRB assay relative to control; conditions: UACC-257, 48 h, read-out: GI
[7] = Growth inhibition of human NCI-ADR-RES cells at 10 uM after 48 hrs by SRB assay relative to control; conditions: read-out: GI
ACHN = experiment: Growth inhibition of human ACHN cells at 10 uM after 48 hrs by SRB assay relative to control; conditions: read-out: GI
[8] = Growth inhibition of human LOXIMVI cells after 48 hrs by SRB assay; conditions: LOX IMVI
[9] = Growth inhibition of human OVCAR4 cells after 48 hrs by SRB assay; conditions: OVCAR-4, 48 h
[10] = Growth inhibition of human HL-60(TB) cells after 48 hrs by SRB assay; conditions: HL-60, 48 h
[11] = Growth inhibition of human OVCAR8 cells after 48 hrs by SRB assay; conditions: OVCAR-8, 48 h
[12] = Growth inhibition of human SF268 cells at 10 uM after 48 hrs by SRB assay relative to control; conditions: SF-268, 48 h, read-out: GI
SR = experiment: Growth inhibition of human SR cells after 48 hrs by SRB assay
[13] = Growth inhibition of human OVCAR8 cells at 10 uM after 48 hrs by SRB assay relative to control; conditions: OVCAR-8, 48 h, read-out: GI
MDA-MB-468 = experiment: Growth inhibition of human MDA-MB-468 cells at 10 uM after 48 hrs by SRB assay relative to control; conditions: MDA-MB-468, 48 h, read-out: GI
[14] = Growth inhibition of human SF539 cells after 48 hrs by SRB assay; conditions: SF-539, 48 h
[15] = Growth inhibition of human SKOV3 cells after 48 hrs by SRB assay; conditions: SK-OV-3, 48 h
[16] = Growth inhibition of human HOP92 cells after 48 hrs by SRB assay; conditions: HOP-92, 48 h
[17] = Growth inhibition of human OVCAR3 cells after 48 hrs by SRB assay; conditions: OVCAR-3, 48 h
SN12C = experiment: Growth inhibition of human SN12C cells at 10 uM after 48 hrs by SRB assay relative to control; conditions: read-out: GI
SK-MEL-5 = experiment: Growth inhibition of human SK-MEL-5 cells at 10 uM after 48 hrs by SRB assay relative to control; conditions: SK-MEL-5, 48 h, read-out: GI
[18] = Growth inhibition of human SF295 cells after 48 hrs by SRB assay; conditions: SF-295, 48 h
[19] = Growth inhibition of human Caki1 cells at 10 uM after 48 hrs by SRB assay relative to control; conditions: CAKI-1, 48 h, read-out: GI
[20] = Growth inhibition of human SW620 cells at 10 uM after 48 hrs by SRB assay relative to control; conditions: SW-620, 48 h, read-out: GI
CCRF-CEM = experiment: Growth inhibition of human CCRF-CEM cells after 48 hrs by SRB assay
[21] = Growth inhibition of human IGROV1 cells after 48 hrs by SRB assay; conditions: IGROV-1, 48 h
MDA-MB-435 [22] = experiment: Growth inhibition of human MDA-MB-435 cells after 48 hrs by SRB assay; conditions: MDA-MB-435, 48 h
[23] = Growth inhibition of human SNB19 cells at 10 uM after 48 hrs by SRB assay relative to control; conditions: SNB-19, 48 h, read-out: GI
[24] = Growth inhibition of human HCT15 cells at 10 uM after 48 hrs by SRB assay relative to control; conditions: HCT-15, 48 h, read-out: GI
[25] = Growth inhibition of human MOLT4 cells after 48 hrs by SRB assay; conditions: MOLT-4, 48 h
[26] = Growth inhibition of human HCT116 cells at 10 uM after 48 hrs by SRB assay relative to control; conditions: HCT-116, 48 h, read-out: GI
HT-29 [27] = experiment: Growth inhibition of human HT-29 cells at 10 uM after 48 hrs by SRB assay relative to control; conditions: HT-29, 48 h, read-out: GI
[28] = Growth inhibition of human Hs 578T cells at 10 uM after 48 hrs by SRB assay relative to control; conditions: read-out: GI
[29] = Growth inhibition of human UO31 cells after 48 hrs by SRB assay; conditions: UO-31, 48 h
A549 = experiment: Growth inhibition of human A549 cells after 48 hrs by SRB assay; conditions: A549, 48 h
[30] = Growth inhibition of human HL-60(TB) cells at 10 uM after 48 hrs by SRB assay relative to control; conditions: HL-60, 48 h, read-out: GI
[31] = Growth inhibition of human RPMI8226 cells after 48 hrs by SRB assay; conditions: RPMI-8226, 48 h
HT-29 [32] = experiment: Growth inhibition of human HT-29 cells after 48 hrs by SRB assay; conditions: HT-29, 48 h
[33] = Growth inhibition of human HCC2998 cells after 48 hrs by SRB assay; conditions: HCC 2998, 48 h
[34] = Growth inhibition of human IGROV1 cells at 10 uM after 48 hrs by SRB assay relative to control; conditions: IGROV-1, 48 h, read-out: GI
[35] = Growth inhibition of human UACC62 cells after 48 hrs by SRB assay; conditions: UACC-62, 48 h
SK-MEL-2 = experiment: Growth inhibition of human SK-MEL-2 cells at 10 uM after 48 hrs by SRB assay relative to control; conditions: SK-MEL-2, 48 h, read-out: GI
[36] = Growth inhibition of human HCT15 cells after 48 hrs by SRB assay; conditions: HCT-15, 48 h

SMILES: COc1ccc(C(=O)N2c3ccccc3Sc3ccccc32)c(C(F)(F)F)c1
- inhibition of growth at 10 µM [1]: 66%
- GI50 (NCI-H522): 320 nM
- inhibition of growth at 10 µM (SK-MEL-28): 48%
- GI50 [2]: 362 nM
- inhibition of growth at 10 µM (MDA-MB-435 [3]): 100%
- GI50 [4]: 3040 nM
- GI50 [5]: 425 nM
- inhibition of growth at 10 µM [6]: 38%
- inhibition of growth at 10 µM [7]: 97%
- inhibition of growth at 10 µM (ACHN): 68%
- GI50 [8]: 516 nM
- GI50 [9]: 1980 nM
- GI50 [10]: 252 nM
- GI50 [11]: 592 nM
- inhibition of growth at 10 µM [12]: 65%
- GI50 (SR): 312 nM
- inhibition of growth at 10 µM [13]: 85%
- inhibition of growth at 10 µM (MDA-MB-468): 70%
- GI50 [14]: 270 nM
- GI50 [15]: 794 nM
- GI50 [16]: 152 nM
- GI50 [17]: 332 nM
- inhibition of growth at 10 µM (SN12C): 60%
- inhibition of growth at 10 µM (SK-MEL-5): 95%
- GI50 [18]: 372 nM
- inhibition of growth at 10 µM [19]: 68%
- inhibition of growth at 10 µM [20]: 75%
- GI50 (CCRF-CEM): 88 nM
- GI50 [21]: 2200 nM
- GI50 (MDA-MB-435 [22]): 176 nM
- inhibition of growth at 10 µM [23]: 69%
- inhibition of growth at 10 µM [24]: 82%
- GI50 [25]: 406 nM
- inhibition of growth at 10 µM [26]: 93%
- inhibition of growth at 10 µM (HT-29 [27]): 97%
- inhibition of growth at 10 µM [28]: 76%
- GI50 [29]: 2620 nM
- GI50 (A549): 515 nM
- inhibition of growth at 10 µM [30]: 98%
- GI50 [31]: 595 nM
- GI50 (HT-29 [32]): 362 nM
- GI50 [33]: 467 nM
- inhibition of growth at 10 µM [34]: 62%
- GI50 [35]: 438 nM
- inhibition of growth at 10 µM (SK-MEL-2): 53%
- GI50 [36]: 405 nM

SMILES: COc1ccc(C(=O)N2c3ccccc3Sc3ccccc32)c(OC)c1
- inhibition of growth at 10 µM [1]: 63%
- GI50 (NCI-H522): 343 nM
- inhibition of growth at 10 µM (SK-MEL-28): 42%
- GI50 [2]: 413 nM
- inhibition of growth at 10 µM (MDA-MB-435 [3]): 100%
- GI50 [4]: 853 nM
- GI50 [5]: 412 nM
- inhibition of growth at 10 µM [6]: 23%
- inhibition of growth at 10 µM [7]: 100%
- inhibition of growth at 10 µM (ACHN): 57%
- GI50 [8]: 601 nM
- GI50 [9]: 3170 nM
- GI50 [10]: 297 nM
- GI50 [11]: 749 nM
- inhibition of growth at 10 µM [12]: 63%
- GI50 (SR): 562 nM
- inhibition of growth at 10 µM [13]: 72%
- inhibition of growth at 10 µM (MDA-MB-468): 100%
- GI50 [14]: 333 nM
- GI50 [15]: 715 nM
- GI50 [16]: 374 nM
- GI50 [17]: 322 nM
- inhibition of growth at 10 µM (SN12C): 48%
- inhibition of growth at 10 µM (SK-MEL-5): 81%
- GI50 [18]: 484 nM
- inhibition of growth at 10 µM [19]: 63%
- inhibition of growth at 10 µM [20]: 75%
- GI50 (CCRF-CEM): 394 nM
- GI50 [21]: 926 nM
- GI50 (MDA-MB-435 [22]): 212 nM
- inhibition of growth at 10 µM [23]: 68%
- inhibition of growth at 10 µM [24]: 81%
- GI50 [25]: 447 nM
- inhibition of growth at 10 µM [26]: 91%
- inhibition of growth at 10 µM (HT-29 [27]): 100%
- inhibition of growth at 10 µM [28]: 85%
- GI50 [29]: 739 nM
- GI50 (A549): 785 nM
- inhibition of growth at 10 µM [30]: 99%
- GI50 [31]: 523 nM
- GI50 (HT-29 [32]): 385 nM
- GI50 [33]: 1490 nM
- inhibition of growth at 10 µM [34]: 47%
- GI50 [35]: 321 nM
- inhibition of growth at 10 µM (SK-MEL-2): 62%
- GI50 [36]: 464 nM
